molecular target: T1, AEK1 (Trypanosoma brucei, UniProt Q582V7); assay: TR-FRET displacement of probe SCP-2; format: binding; details: read-out: % control^a
T1 construct: gene Tb03.48O8.470
T1 sequence (Q582V7 entry or part of it): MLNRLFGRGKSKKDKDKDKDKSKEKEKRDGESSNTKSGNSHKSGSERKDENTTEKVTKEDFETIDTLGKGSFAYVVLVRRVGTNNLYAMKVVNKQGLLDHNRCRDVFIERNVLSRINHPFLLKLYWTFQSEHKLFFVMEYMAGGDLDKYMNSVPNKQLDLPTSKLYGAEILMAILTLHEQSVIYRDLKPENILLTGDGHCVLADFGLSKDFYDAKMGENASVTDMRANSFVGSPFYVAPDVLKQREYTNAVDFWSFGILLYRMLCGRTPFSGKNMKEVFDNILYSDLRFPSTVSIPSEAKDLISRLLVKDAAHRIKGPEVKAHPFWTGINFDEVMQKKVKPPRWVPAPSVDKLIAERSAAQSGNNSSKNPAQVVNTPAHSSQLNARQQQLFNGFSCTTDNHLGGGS

Row | SMILES | probe binding remaining (% of control) at 1 µM
1 | Cc1nc(Nc2[nH]nc3c2CN(C(=O)N[C@H](CN(C)C)c2ccccc2)C3(C)C)c2sccc2n1 [PF-3758309] | 38.2%
2 | CCS(=O)(=O)c1cccc(-c2cc(C(=O)NC3CCN(C)CC3)c(C)c3[nH]c4ncc(C)cc4c23)c1 [TAK-901] | 20.1%
3 | Cc1c[nH]c2nc(Nc3ccc(N4CCN(C)CC4)c(F)c3)nc(-c3cccc(CC#N)c3)c12 [SGI-7079] | 43.7%
4 | COc1cc2c(Oc3ccc4[nH]c(C)cc4c3F)ncnc2cc1OCCCN1CCCC1 [Cediranib (AZD2171)] | 36.6%
5 | Cn1cc(-c2[nH]c3cc(NC(=O)[C@H](N)C4CCCCC4)cc4c3c2C=NNC4=O)cn1 [PF-477736] | 23.1%
